Drawing on patent US20240270762A1, “PENICILLIN-BINDING PROTEIN INHIBITORS” (priority 2021, published 2024), this text covers EC50 and MIC for seven compounds.

Each structure is given as a SMILES string. Values after ≈ are worked out from the molar mass of the structure shown. Some results are limits rather than exact numbers.

Test [1] addresses T1, A. baumannii PBP1a (Acinetobacter baumannii, UniProt A0ABX6CK30).
T1 sequence (A0ABX6CK30 1-851): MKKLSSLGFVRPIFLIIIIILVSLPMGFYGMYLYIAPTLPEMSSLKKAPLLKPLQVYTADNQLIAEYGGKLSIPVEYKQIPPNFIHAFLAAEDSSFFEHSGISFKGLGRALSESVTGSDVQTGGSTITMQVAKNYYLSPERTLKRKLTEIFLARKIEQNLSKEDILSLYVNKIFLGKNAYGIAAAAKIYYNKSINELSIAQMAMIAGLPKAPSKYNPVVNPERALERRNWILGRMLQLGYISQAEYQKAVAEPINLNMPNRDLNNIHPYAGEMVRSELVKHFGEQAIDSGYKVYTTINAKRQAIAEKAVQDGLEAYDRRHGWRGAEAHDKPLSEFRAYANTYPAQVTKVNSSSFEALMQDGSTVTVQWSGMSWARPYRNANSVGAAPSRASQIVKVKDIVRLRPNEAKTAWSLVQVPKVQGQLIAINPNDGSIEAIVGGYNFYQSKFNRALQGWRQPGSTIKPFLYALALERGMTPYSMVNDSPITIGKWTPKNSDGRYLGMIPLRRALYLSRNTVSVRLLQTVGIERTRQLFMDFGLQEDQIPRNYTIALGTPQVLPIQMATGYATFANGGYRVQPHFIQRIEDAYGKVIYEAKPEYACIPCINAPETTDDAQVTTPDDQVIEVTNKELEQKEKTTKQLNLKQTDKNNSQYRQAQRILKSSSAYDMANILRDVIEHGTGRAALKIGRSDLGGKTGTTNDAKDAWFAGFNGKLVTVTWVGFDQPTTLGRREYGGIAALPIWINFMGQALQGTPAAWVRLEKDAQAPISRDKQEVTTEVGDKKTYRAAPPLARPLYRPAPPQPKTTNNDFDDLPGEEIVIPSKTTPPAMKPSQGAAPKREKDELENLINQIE
Briefly: Bocillin-FL competition binding via gel filtration, A. baumannii PBP1a. Conditions: competition binding assay using Bocillin-FL via gel filtration; read-out: A. baumannii PBP1a Potency. The gist of the method:
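Enzyme was pre-incubated with rising inhibitor concentrations, then Bocillin-FL was added and incubated 15 minutes more. Bound probe was separated by gel filtration and fluorescence read. EC50 came from fitting fraction of PBP labelled versus inhibitor concentration to a Hill equation with ymin, ymax and n.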
In general terms: In gel filtration, larger molecules generally elute earlier.

Test [2] has as its system P. aeruginosa ATCC 27853. The test can be described thus: microbe, parasite or virus in culture. Format: cell-based. Conditions: Pseudomonas aeruginosa, ATCC27853, read-out: Minimum inhibitory concentration, P. aeruginosa ATCC 27853.
Test [3] has as its system A. baumannii ATCC 17978. Briefly: microbe, parasite or virus in culture. Conditions: Acinetobacter baumannii, ATCC17978, read-out: MIC, A. baumannii ATCC 17978. The class given is cell-based.
The subject of test [4] is A. baumannii ATCC 19606. The test can be described thus: microbe, parasite or virus in culture. Format: cell-based. Conditions: Acinetobacter baumannii, ATCC19606, read-out: MIC, A. baumannii ATCC 19606.
The subject of test [5] is P. aeruginosa (ΔmexAB-oprM). Briefly: Broth microdilution MIC in iron-depleted CAMHB (IDM). Format: cell-based. Conditions: Pseudomonas aeruginosa; iron-depleted CAMHB (IDM); […]; read-out: Minimum inhibitory concentration, P. aeruginosa ΔmexAB-oprM. A general note: Dilution methods test growth across graded concentrations, often in twofold steps.
For test [6], the system named is P. aeruginosa CDC-0054. Briefly: microbe, parasite or virus in culture. The class given is cell-based. Conditions: Pseudomonas aeruginosa, CDC0054, read-out: Minimum inhibitory concentration, P. aeruginosa CDC-0054.
Test [7] concerns A. baumannii 1258916. The test can be described thus: microbe, parasite or virus in culture. Format: cell-based, Acinetobacter baumannii. Conditions: Acinetobacter baumannii, 1258916, read-out: MIC, A. baumannii 1258916.
The subject of test [8] is A. baumannii CDC-0036. The test can be described thus: microbe, parasite or virus in culture. The class given is cell-based. Conditions: Acinetobacter baumannii, CDC0036, read-out: MIC, A. baumannii CDC-0036.
For test [9], the system named is A. baumannii CDC-0045. The test can be described thus: microbe, parasite or virus in culture. Format: cell-based. Conditions: Acinetobacter baumannii, CDC0045, read-out: MIC, A. baumannii CDC-0045.
The test system of test [10] is A. baumannii CDC-0083. Briefly: microbe, parasite or virus in culture. The class given is cell-based. Conditions: Acinetobacter baumannii, CDC0083, read-out: MIC, A. baumannii CDC-0083.
Test [11] deals with B. humptydooensis ATCC BAA-2767. Briefly: microbe, parasite or virus in culture. The class given is cell-based. Conditions: Burkholderia humptydooensis, ATCCBAA2767, read-out: Minimum inhibitory concentration (MIC), B. humptydooensis ATCC BAA-2767.
The test system of test [12] is P. aeruginosa CDC-0110. Briefly: microbe, parasite or virus in culture. The class given is cell-based. Conditions: Pseudomonas aeruginosa, CDC0110, read-out: Minimum inhibitory concentration, P. aeruginosa CDC-0110.

Turning to `O=C(NCCCS(=O)(=O)N1CCN(C(=O)NC(C(=O)N[C@H]2Cc3ccc(F)c(C(=O)O)c3OB2O)c2cc(F)c(O)c(O)c2Cl)C1=O)Nc1cccnc1` (stereo partly drawn) [Example 278, (3R)-3-(2-(2-chloro-5-fluoro-3,4-dihydroxyphenyl)-2-(2-oxo-3-((3-(3-(pyridin-3-yl)ureido)propyl)sulfonyl)imidazolidine-1-carboxamido)acetamido)-7-fluoro-2-hydroxy-3,4-dihydro-2H-benzo[e][1,2]oxaborinine-8-carboxylic acid], in [1], the EC50 fell in the range of 10 to 50 µM. For the same compound, the MIC in test [2] was 2 to 4 µg/mL (≈ 2.51 to 5.03 µM); in test [3], less than 1 µg/mL; in [4], less than 1 µg/mL; in test [5] it was less than 1 µg/mL; in test [6] it was 2 to 4 µg/mL (≈ 2.51 to 5.03 µM); in test [7], less than 1 µg/mL. In addition, the MIC in test [8] is 2 to 4 µg/mL (≈ 2.51 to 5.03 µM); in test [9] it was less than 1 µg/mL; in test [10] it was less than 1 µg/mL; in test [11] it was 2 to 4 µg/mL (≈ 2.51 to 5.03 µM); in [12], 2 to 4 µg/mL (≈ 2.51 to 5.03 µM).

Take `O=C(NCCCN1CCN(C(=O)N[C@@H](C(=O)N[C@H]2Cc3ccc(F)c(C(=O)O)c3OB2O)c2cc(F)c(O)c(O)c2Cl)C(=O)C1=O)c1ccnc(F)c1F` [Example 300, (R)-3-((R)-2-(2-chloro-5-fluoro-3,4-dihydroxyphenyl)-2-(4-(3-(2,3-difluoroisonicotinamido)propyl)-2,3-dioxopiperazine-1-carboxamido)acetamido)-7-fluoro-2-hydroxy-3,4-dihydro-2H-benzo[e][1,2]oxaborinine-8-carboxylic acid]: the EC50 in [1] fell in the range of 10 to 50 µM. The MIC in [2] was 2 to 4 µg/mL (≈ 2.56 to 5.12 µM); in [3], less than 1 µg/mL; in [4] it was less than 1 µg/mL; in [5], less than 1 µg/mL; in [6], less than 1 µg/mL; in test [7], less than 1 µg/mL. The MIC in test [8] was 2 to 4 µg/mL (≈ 2.56 to 5.12 µM); in test [9], less than 1 µg/mL; in [10], less than 1 µg/mL; in [11], less than 1 µg/mL; in test [12] it was less than 1 µg/mL.

As to `O=C(NCCCN1CCN(C(=O)N[C@H](C(=O)N[C@H]2Cc3ccc(F)c(C(=O)O)c3OB2O)c2cc(F)c(O)c(O)c2Cl)C1=O)Nc1ccc(O)cc1` [Example 283, (R)-3-((S)-2-(2-chloro-5-fluoro-3,4-dihydroxyphenyl)-2-(3-(3-(3-(4-hydroxyphenyl)ureido)propyl)-2-oxoimidazolidine-1-carboxamido)acetamido)-7-fluoro-2-hydroxy-3,4-dihydro-2H-benzo[e][1,2]oxaborinine-8-carboxylic acid], the MIC in test [2], in [3], in test [4], in [5], in test [6] and in test [7] was more than 128 µg/mL in each case. Moreover, the MIC in test [8], in test [9], in [10], in test [11] and in test [12] was more than 128 µg/mL in each case.

In the case of `O=C(O)c1c(F)ccc2c1OB(O)[C@@H](NC(=O)C(NC(=O)N1CCN(Cc3ccc(O)c(O)c3Cl)C(=O)C1=O)c1cc(F)c(O)c(O)c1Cl)C2` (stereo partly drawn) [Example 292, (3R)-3-(2-(4-(2-chloro-3,4-dihydroxybenzyl)-2,3-dioxopiperazine-1-carboxamido)-2-(2-chloro-5-fluoro-3,4-dihydroxyphenyl)acetamido)-7-fluoro-2-hydroxy-3,4-dihydro-2H-benzo[e][1,2]oxaborinine-8-carboxylic acid], the MIC is less than 1 µg/mL in test [2]; less than 1 µg/mL in [3]; more than 128 µg/mL in test [4]; less than 1 µg/mL in test [5]; less than 1 µg/mL in test [6]; more than 128 µg/mL in test [7]. Further, the MIC in test [8], in test [9], in [10], in test [11] and in [12] was more than 128 µg/mL each time.

Turning to `O=C(NCCCN1CCN(C(=O)N[C@@H](C(=O)N[C@H]2Cc3ccc(F)c(C(=O)O)c3OB2O)c2cc(F)c(O)c(O)c2Cl)C(=O)C1=O)c1ccncc1` [Example 294, (R)-3-((R)-2-(2-chloro-5-fluoro-3,4-dihydroxyphenyl)-2-(4-(3-(isonicotinamido)propyl)-2,3-dioxopiperazine-1-carboxamido)acetamido)-7-fluoro-2-hydroxy-3,4-dihydro-2H-benzo[e][1,2]oxaborinine-8-carboxylic acid], the MIC in test [2], in [3], in [4], in test [5], in test [6] and in test [7] was less than 1 µg/mL in each case. The MIC in test [8], in test [9], in test [10], in test [11] and in [12] was less than 1 µg/mL each time.

As for `O=C(NCCCN1CCN(C(=O)N[C@H](C(=O)N[C@H]2Cc3ccc(F)c(C(=O)O)c3OB2O)c2cc(F)c(O)c(O)c2Cl)C(=O)C1=O)c1cc(F)c(O)cc1F` (single isomer, unassigned) [Example 472], the MIC in [2] was 2 to 4 µg/mL (≈ 2.51 to 5.03 µM); in [3] it was less than 1 µg/mL; in test [4], 2 to 4 µg/mL (≈ 2.51 to 5.03 µM); in test [5], less than 1 µg/mL; in [6], less than 1 µg/mL; in test [7], 8 to 16 µg/mL (≈ 10.1 to 20.1 µM). In addition, the MIC in [8] is 8 to 16 µg/mL (≈ 10.1 to 20.1 µM); in test [9], 8 to 16 µg/mL (≈ 10.1 to 20.1 µM); in [10], more than 128 µg/mL; in test [11] it was 2 to 4 µg/mL (≈ 2.51 to 5.03 µM); in [12] it was less than 1 µg/mL.

On to `O=C(NCCS(=O)(=O)N1CCN(C(=O)N[C@H](C(=O)N[C@H]2Cc3ccc(F)c(C(=O)O)c3OB2O)c2cc(F)c(O)c(O)c2Cl)C1=O)c1ccc(O)cc1` [Example 286, (R)-3-((S)-2-(2-chloro-5-fluoro-3,4-dihydroxyphenyl)-2-(3-((2-(4-hydroxybenzamido)ethyl)sulfonyl)-2-oxoimidazolidine-1-carboxamido)acetamido)-7-fluoro-2-hydroxy-3,4-dihydro-2H-benzo[e][1,2]oxaborinine-8-carboxylic acid], for which the MIC in test [2], in [3], in test [4], in test [5], in [6] and in [7] was more than 128 µg/mL in each case. For the same compound, the MIC in [8], in test [9], in [10], in test [11] and in test [12] was more than 128 µg/mL in each case.
